The test has as its target T1, G3BP1 (Homo sapiens, UniProt Q13283).
T1 construct: full-length, EGFP-tagged (mEGFP), recombinant in E. coli BL21(DE3) from pET-28a, size-exclusion purified; immobilized on CM5 chip
Kind of test: SPR (Biacore 8K, CM5 chip, immobilized EGFP-G3BP1, […] Langmuir fit). In kind it is binding.

Molecules are shown by their SMILES.

T1 sequence (Q13283 2-466): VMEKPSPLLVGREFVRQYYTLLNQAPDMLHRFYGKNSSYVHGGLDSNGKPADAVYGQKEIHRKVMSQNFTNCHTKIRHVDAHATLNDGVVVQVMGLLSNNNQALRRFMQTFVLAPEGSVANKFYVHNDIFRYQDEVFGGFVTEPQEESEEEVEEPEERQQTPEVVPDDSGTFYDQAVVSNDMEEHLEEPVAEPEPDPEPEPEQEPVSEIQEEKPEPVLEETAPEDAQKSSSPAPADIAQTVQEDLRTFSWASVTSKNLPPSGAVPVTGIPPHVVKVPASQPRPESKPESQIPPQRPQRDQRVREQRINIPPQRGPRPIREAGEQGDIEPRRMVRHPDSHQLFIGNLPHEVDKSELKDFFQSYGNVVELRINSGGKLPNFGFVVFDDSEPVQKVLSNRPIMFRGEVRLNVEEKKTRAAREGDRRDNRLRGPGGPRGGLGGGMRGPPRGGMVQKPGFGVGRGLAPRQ

As for `CC(=NNC(=O)c1ccccc1O)c1ccccc1O` [C108], the Kd – broadly, the equilibrium constant for the complex coming apart – was determined as 2.71 µM. This lies in the single-digit micromolar range. As to `C=C(C)[C@@H]1CC=C(C=O)CC1` [perillaldehyde], the Kd amounted to 5.49 µM.

The record behind these values is article PMC11984871, “Perillaldehyde Improves Parkinson‐Like Deficits by Targeting G3BP Mediated Stress Granule Assembly in Preclinical Models” (Advanced Science, 2025).
